The values that follow come from patent publication US20080032965A1, “Method for enhancing cognitive function” (priority 2006, published 2008).

Where two headings read alike, the source gives them in different places.

In one assay the target is D2 (Homo sapiens, UniProt P14416). The settings on record: read-out: Ki (nM) D2; Table 2; cited from earlier work.
The next assay has as its target T1, 5-HT1A (Homo sapiens, UniProt P08908).
T1 sequence (P08908 1-422): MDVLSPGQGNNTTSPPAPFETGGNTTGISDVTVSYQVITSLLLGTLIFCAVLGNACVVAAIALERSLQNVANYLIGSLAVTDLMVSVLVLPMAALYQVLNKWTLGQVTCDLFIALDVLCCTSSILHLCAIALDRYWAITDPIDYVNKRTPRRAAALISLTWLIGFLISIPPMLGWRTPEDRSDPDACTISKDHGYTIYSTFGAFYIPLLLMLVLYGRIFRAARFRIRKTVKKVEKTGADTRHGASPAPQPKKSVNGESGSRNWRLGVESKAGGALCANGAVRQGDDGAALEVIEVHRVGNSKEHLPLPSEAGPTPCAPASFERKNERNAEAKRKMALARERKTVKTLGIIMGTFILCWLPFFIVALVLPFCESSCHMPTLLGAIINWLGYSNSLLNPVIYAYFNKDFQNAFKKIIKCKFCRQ

For another assay, the target named is a1. The settings on record: Table 2; cited from earlier work.
The subject of assay [1] is recognition memory. In words: Novel Object Recognition Model (Example 1). The settings on record: for effect on the cognitive enhancing properties of Aricept in the Novel Object Recognition Model: co-administered with Aricept, lowers dose of both agents required for efficacy. Type of assay: in vivo, rats. As for the experimental part: (§1) Novel Object Recognition Model: Male Long-Evans hooded rats (˜200 g at the time of testing) were individually housed with ad libitum access to food and water. Novel object recognition (NOR) training and testing was performed in a circular field (diameter ˜70 cm, 30 cm high) constructed out of plastic and containing soiled bedding (without feces). The field was surrounded by black curtains to mask extra-field cues and was located in a dimly lit room (˜10 lux at the level of the area) in the presence of white noise (˜65 dB). Animal performance was tracked by video and monitored by an experimenter located outside of the testing room. Objects, constructed with Duplo® blocks (Lego), could be affixed to the floor in one of four locations spaced evenly around the field approximately 10 cm from the field's edge. To avoid possible olfactory cues, multiple copies of the objects were used throughout the study and were cleaned with a 30% ethanol solution between animals.
The visual recognition task was divided into 3 sessions—habituation, a sample trial and a choice trial. During habituation the animals were placed into the field containing 2 identical yellow cubes (˜10 cm×10 cm×10 cm) and were allowed to explore the field for ten minutes. Following habituation, rats were returned to their home cage. One day after habituation, animals were dosed with drug (either a 5-HT1A antagonist compound, a cognitive enhancer or both a 5-HT1A antagonist compound and a cognitive enhancer) and following the pretreatment interval the sample trial was initiated. […] The amount of time investigating the objects was recorded for the entire trial. […]
(§2) The effect of treatment on object exploration during trial one was examined using a one-way ANOVA on total contact time followed by Fisher's LSD group mean pair-wise comparisons. The amount of time exploring the novel and familiar objects across treatment groups was analyzed using a repeated measures ANOVA followed by Fisher's LSD post-hoc comparisons. […]

The test system of assay [2] is recognition memory. Description: Novel Object Recognition, Compound 405 with Aricept (Example 2). Conditions: compared between vehicle, Aricept 0.5 mg/kg, Compound 405 0.3 mg/kg and combination groups. Type of assay: in vivo, mice. As for the experimental part:
as §1, with “Objects, constructed with Duplo® blocks (Lego), could be affixed to the floor in one of four locations spaced evenly around the field approximately 10 cm from the field's edge. To avoid possible olfactory cues, multiple copies of the objects were used throughout the study and were cleaned with a 30% ethanol solution between animals.” left out
The visual recognition task was divided into 3 sessions—habituation, a sample trial and a choice trial. […] The amount of time investigating the objects was recorded for the entire trial. […]
as §2
Cognitive enhancement was measured using the Novel Object Recognition procedure described in Example 1. […]

The next assay deals with 5-HT2A (Homo sapiens, UniProt P28223). Conditions: read-out: Ki (nM) 5-HT2A; Table 1; cited from earlier work.
5-HT2A, sequence (P28223 whole entry): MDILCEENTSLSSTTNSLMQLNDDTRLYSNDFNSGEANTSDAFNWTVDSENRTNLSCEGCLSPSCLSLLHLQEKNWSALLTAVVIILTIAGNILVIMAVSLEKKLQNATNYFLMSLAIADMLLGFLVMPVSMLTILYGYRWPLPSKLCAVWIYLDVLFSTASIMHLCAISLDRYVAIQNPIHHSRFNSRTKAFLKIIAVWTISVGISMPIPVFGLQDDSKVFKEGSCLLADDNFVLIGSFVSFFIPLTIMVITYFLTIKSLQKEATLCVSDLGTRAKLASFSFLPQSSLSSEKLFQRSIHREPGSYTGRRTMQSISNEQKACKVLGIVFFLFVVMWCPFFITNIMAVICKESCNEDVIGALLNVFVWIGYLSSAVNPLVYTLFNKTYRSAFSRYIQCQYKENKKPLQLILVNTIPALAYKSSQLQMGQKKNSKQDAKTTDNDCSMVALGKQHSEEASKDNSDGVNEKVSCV
A further assay addresses *1^A. Conditions: Table 4; cited from earlier work.
Setting [3] is: read-out: Ki (nM) 5-HT1A; Table 2; cited from earlier work.
The mark [4] stands for this setting: Table 3; read-out: IC50 (nM) 5-HT1A; cited from earlier work.
Where [5] appears, read: Table 2; read-out: Ki (nM) 5-HT1A; cited from earlier work.
Setting [6] is: read-out: Ki (nM) 5-HT1A; Table 4; cited from earlier work.

D2, sequence (P14416 whole entry): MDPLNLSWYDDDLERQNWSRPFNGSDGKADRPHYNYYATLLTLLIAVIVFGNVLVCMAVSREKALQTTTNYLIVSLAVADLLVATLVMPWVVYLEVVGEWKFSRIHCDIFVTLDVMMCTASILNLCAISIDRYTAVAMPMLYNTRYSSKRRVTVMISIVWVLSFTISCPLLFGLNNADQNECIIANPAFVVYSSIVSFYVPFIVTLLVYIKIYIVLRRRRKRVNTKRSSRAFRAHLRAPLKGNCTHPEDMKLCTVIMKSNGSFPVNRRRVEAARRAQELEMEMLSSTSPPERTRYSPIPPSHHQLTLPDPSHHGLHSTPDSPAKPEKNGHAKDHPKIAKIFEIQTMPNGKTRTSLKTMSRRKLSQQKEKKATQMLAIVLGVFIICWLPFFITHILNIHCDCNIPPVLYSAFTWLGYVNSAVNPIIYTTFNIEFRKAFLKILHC

By Ki is commonly meant the dissociation constant of the complex between target and ligand, obtained from inhibition or displacement. On to `COc1ccccc1N1CCN(CC(C(=O)NC(C)(C)C)c2ccccc2)CC1` (racemic) [Compound Y (R)], for which the inhibition constant Ki on D2 was 4 nM; at 5-HT1A (setting [3]), 104 nM; on a1, 1240 nM.

On to `COc1ccccc1N1CCN(CC(C(=O)NC(C)(C)C)c2ccccc2)CC1` (racemic) [Compound Y (S)], for which the results for the inhibition constant Ki on D2, on 5-HT1A (setting [3]) and at a1 were 20 nM, 22 nM and 1440 nM, respectively.

Turning to `COc1ccccc1N1CCN(CC(C(=O)NC(C)(C)C)c2ccccc2)CC1` (racemic) [Compound Y (±)], the inhibition constant (Ki) is 14 nM at D2, 20 nM at 5-HT1A (setting [3]) and 718 nM at a1.

For the molecule `COc1cc(N2CCN(C3CCN(c4ccc(F)c5c(OC)cc(C(F)(F)F)nc45)CC3)CC2)c2ncccc2c1` [5-fluoro-4-methoxy-8-(4-(4-(6-methoxyquinolin-8-yl)piperazin-1-yl)piperidin-1-yl)-2-(trifluoromethyl)quinoline], the “effect on the cognitive enhancing properties of Aricept in the Novel Object Recognition Model” value in the assay on recognition memory [1] is “synergistic effect”.

On to `COc1cc(N2CCN(C3CCN(c4ccc(F)c5cccnc45)CC3)CC2)c2ncccc2c1` [5-fluoro-8-(4-(4-(6-methoxyquinolin-8-yl)piperazin-1-yl)piperidin-1-yl)quinoline], for which, in the assay on recognition memory [1], the “effect on the cognitive enhancing properties of Aricept in the Novel Object Recognition Model” value is “synergistic effect”.

As for `COc1cc2c(cc1OC)C(=O)C(CC1CCN(Cc3ccccc3)CC1)C2` (stereo not shown) [Aricept®, donepezil], in the assay on recognition memory [2], the “exploration time (FIG. 1)” value is on record as “relatively similar”. Moreover, in the assay on recognition memory [1] (sub-threshold doses: Aricept 0.5 mg/kg i.p. or 5-HT1A antagonist 0.1 mg/kg p.o., 48 hour inter-trial interval), the “contact times familiar vs novel, administered separately” value is given as “not statistically different”.

As for `O=c1ccc(=O)n(-c2ccccc2)n1CCCCN1CCN(c2cccc(Cl)c2)CC1` [Compound 104], at 5-HT2A, the inhibition constant (Ki) was 1830 nM.

Regarding `COc1ccccc1N1CCN(CCCn2c(=O)ccc(=O)n2-c2ccccc2)CC1` [Compound 105], on 5-HT2A, the Ki is 2120 nM.

Take `COc1ccccc1N1CCN(CCCCn2c(=O)ccc(=O)n2-c2ccccc2)CC1` [Compound 106]: the Ki at 5-HT1A (read-out: Ki (nM) 5-HT1A; Table 1; cited from earlier work) was 51 nM; on 5-HT2A it was 1450 nM.

One may read the IC50 as the concentration that gives 50% inhibition. On to `OC1(c2ccc3c(c2)OCO3)CCC(N2CCN(Cc3ccccc3)CC2)CC1` (stereo not shown) [Compound 112], for which the IC50 at 5-HT1A (setting [4]) was 20 nM.

`COc1ccc(C2(O)CCC(N3CCN(Cc4ccccc4)CC3)CC2)cc1` (stereo not shown) [Compound 113]: on 5-HT1A (setting [4]), the half-maximal inhibitory concentration (IC50) was 50 nM.

On to `COc1cccc(CN2CCN(C3CCC(O)(c4ccc5c(c4)OCO5)CC3)CC2)c1` (stereo not shown) [Compound 114], for which the IC50 on 5-HT1A (setting [4]) was 2.2 nM.

Take `COc1ccccc1N1CCN(CC(C(=O)NC2CCCCC2)c2ccccc2)CC1` (stereo not shown) [Compound 118]: the Ki at 5-HT1A (setting [3]) is 10 nM; on a1 it was 1870 nM.

As for `O=C(C1CCCCC1)N(CN1CCN(c2ccccc2O)CC1)c1ccccn1` [Compound 119], the IC50 at 5-HT1A (Table 2, starred value; read-out: 5-HT1A, data expressed as IC50 value (*); cited from earlier work) was 2.1 nM.

With `CS(=O)(=O)Oc1ccccc1N1CCN(CN(C(=O)C2CCCCC2)c2ccccn2)CC1` [Compound 122], on 5-HT1A (setting [5]), the Ki was 7.25 nM.

Consider `O=C(C1CCCCC1)N(CN1CCN(c2ccccc2OS(=O)(=O)C(F)(F)F)CC1)c1ccccn1` [Compound 123], for which the inhibition constant Ki on 5-HT1A (setting [5]) is 36 nM.

`COc1ccccc1N1CCN(CCN(C(=O)c2ccc(I)cc2)c2ccccn2)CC1` [Compound 124]: the figures for the Ki at D2, on 5-HT1A (setting [3]) and on a1 were 19 nM, 2.6 nM and 35 nM, respectively.

On to `COc1ccccc1N1CCN(CCN(C(=O)c2cccc(I)c2)c2ccccn2)CC1` [Compound 125], for which the Ki on 5-HT1A (setting [5]) is 1.7 nM.

`COc1ccccc1N1CCN(CCN(C(=O)c2ccc(F)cc2)c2ccccn2)CC1` [Compound 127]: the inhibitory constant (Ki) at 5-HT1A (setting [5]) was 3.3 nM.

With `COc1ccccc1N1CCN(CCCSc2nc3sc4c(c3c(=O)n2N)CCC4)CC1` [Compound 129], the values for the inhibition constant Ki on *1^A and at 5-HT1A (setting [6]) were 7.39 nM and 9.26 nM, respectively.

Regarding `COc1ccccc1N1CCN(CCCSc2nc(N)c3c(C)c(C)sc3n2)CC1` [Compound 135], the Ki is 10.8 nM on *1^A and 2.45 nM at 5-HT1A (setting [6]).

In the case of `CCOc1ccccc1-c1nnc(SCCCN2CCN(c3ccccc3[N+](=O)[O-])CC2)s1` [Compound 137], the figures for the inhibition constant (Ki) on *1^A and on 5-HT1A (setting [6]) were 437 nM and 135 nM, respectively.

On to `C[C@H](CN(C(=O)C1CCCCC1)c1ccccn1)N1CCN(c2cccc3[nH]ccc23)CC1` [Compound 405, (R)-N-(2-methyl-(4-indolyl-1-piperazinyl)ethyl)-N-(2-pyridinyl)cyclohexane carboxamide], for which the “exploration time (FIG. 1)” value in the assay with recognition memory [2] was “relatively similar”.

In the case of `COc1ccccc1N1CCN(CN(C(=O)C2CCCCC2)c2ccccn2)CC1` [Compound X], the figures for the inhibition constant (Ki) at D2, at 5-HT1A (setting [3]) and on a1 were 79 nM, 0.24 nM and 45 nM, respectively.
